Values of other authors as cited in patent US9044383B1, “Compounds and methods for drug delivery via a human nail” (priority 2013, dated 2015).

Tests used:
[1] = tested on: obesity in subjects; settings: applied topically on the skin
[2] = tested on: overweight and obese men; settings: taken orally

## C=C[C@@]1(C)CC(=O)[C@]2(O)[C@@]3(C)[C@@H](O)CCC(C)(C)[C@@H]3[C@H](O)[C@H](OC(C)=O)[C@@]2(C)O1 [forskolin, 7-beta-acetoxy-8,13-epoxy-1-alpha, 6-beta, 9-alpha-trihydroxylabd-14-en-1′-one]
[1]
  decreasing obesity: favorable results
Organic solvents such as ethanol, chloroform, and dimethyl surfoxide
  solubility in organic solvents: soluble
Water with 2% ethanol, first dissolved in ethanol or dimethyl surfoxide at 5 mg/mL, then diluted with water
  solubility in water (with 2% ethanol): up to 0.2 mm
[2]
  effectiveness as a weight loss aid: favorable results
